Assay results published in ChEMBL document CHEMBL3046838, “In vitro and in silico exploration of IL-2 inhibition by small drug-like molecules” (Med Chem Res, 2013).
Values after ≈ are worked out from the molar mass of the structure shown.

What was measured:
[1] = tested on: Blood; assay: Inhibition of ROS production in human whole blood after 30 mins by luminol-based chemiluminescence assay; type: functional, tissue-based; settings: 0.5 h
[2] = tested on: PBMC; assay: Immunosuppressive activity in human PBMC assessed as inhibition of PHA/PMA-induced IL-2 production after 18 hrs by ELISA; type: functional, cell-based
[3] = tested on: PBMC; assay: Immunosuppressive activity in human PBMC assessed as inhibition of PHA-induced T cell proliferation after 72 hrs by [3H]thymidine incorporation assay; type: functional, cell-based
[4] = tested on: CC-1; assay: Cytotoxicity against rat CC1 after 48 hrs by MTT assay; type: cell-based; settings: CC-1, 48 h
[5] = tested on: 3T3-L1; assay: Cytotoxicity against mouse 3T3L1 after 48 hrs by MTT assay; type: cell-based; settings: 3T3-L1, 48 h
[6] = molecular target: T1, Interleukin-2 receptor subunit alpha (Homo sapiens, UniProt P01589); assay: Competitive inhibition of IL2 receptor alpha (unknown origin)
T1 sequence (P01589 whole entry): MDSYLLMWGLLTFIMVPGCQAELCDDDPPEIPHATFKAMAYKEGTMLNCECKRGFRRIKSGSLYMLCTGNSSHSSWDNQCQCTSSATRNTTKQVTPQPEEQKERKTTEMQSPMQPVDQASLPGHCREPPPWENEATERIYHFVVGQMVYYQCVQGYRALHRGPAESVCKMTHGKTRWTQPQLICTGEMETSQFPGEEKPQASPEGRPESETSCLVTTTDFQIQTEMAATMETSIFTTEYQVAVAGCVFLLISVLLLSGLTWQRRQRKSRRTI

| Structure (SMILES) | IC50 [1] [µg/mL] | IC50 [2] [µg/mL] | IC50 [3] [µg/mL] | IC50 [4] [µg/mL] | IC50 [5] [µg/mL] | IC50 [6] [µM] |
| --- | --- | --- | --- | --- | --- | --- |
| CC1CC(=O)Nc2cc(N)ccc2N1 (configuration not stated) | 4.5 (≈ 23.5 µM) | 13 (≈ 68 µM) | 4.4 (≈ 23 µM) | – | – | – |
| CC1(C)CC(=O)Nc2cc([N+](=O)[O-])ccc2N1 | 12.4 (≈ 52.7 µM) | – | – | – | – | – |
| CC1C/C(=N\NC(=O)Nc2ccccc2)Nc2cc([N+](=O)[O-])ccc2N1 (configuration not stated) | – | – | 25.5 (≈ 72 µM) | – | – | – |
| Nc1ccc(C(=O)/C=C/c2cccc(Cl)c2)cc1 | 24.4 (≈ 94.7 µM) | 2.5 (≈ 9.7 µM) | < 0.5 | 16.7 (≈ 64.8 µM) | 9.5 (≈ 36.9 µM) | – |
| Cc1ccc(/C=C/C(=O)c2ccc(N)cc2)cc1 | 12.4 (≈ 52.3 µM) | 15.1 (≈ 63.6 µM) | 3.2 (≈ 13.5 µM) | – | – | – |
| O=C(/C=C/c1ccccc1)c1cccc(O)c1 | 4.8 (≈ 21.4 µM) | 14.2 (≈ 63.3 µM) | 8.2 (≈ 36.6 µM) | – | – | – |
| Cc1ccc(/C=C/C(=O)c2ccccc2)cc1 | 31 (≈ 139 µM) | 15.6 (≈ 70.2 µM) | 7.8 (≈ 35.1 µM) | – | – | – |
| COC(=O)[C@H](Cc1ccc(C#Cc2ccccc2)cc1)NC(=O)C[C@H]1CCCN(C(=N)N)C1 | – | – | – | – | – | 6 |
| O=C(/C=C/c1ccccc1)c1ccccc1O [2'-HYDROXYCHALCONE] | – | 19.7 (≈ 87.8 µM) | 11 (≈ 49.1 µM) | – | – | – |
